According to US8420607B2 (priority 2006, dated 2013):

Experiments:
[1] = tested on: rabbit anti-live spore B. anthracis Sterne 34F2 antiserum; type: binding
[2] = tested on: rabbit anti-irradiated spore B. anthracis Sterne 34F2 antiserum; type: binding
[3] = tested on: anti-anthrose IgG in rhesus macaque sera; type: binding, rhesus macaques
[4] = tested on: rabbit anti-B. anthracis live spore antiserum IgG; type: binding
[5] = tested on: IgG antibodies of rabbit anti-live spore, anti-irradiated spore and anti-polysaccharide-KLH antisera; type: binding
[6] = tested on: rabbit anti-spore serum (live spore antiserum); type: binding

COC1C(OC2C(O)C(C)OC(OC3C(O)C(C)OC(OCCCN)C3O)C2O)OC(C)C(NC(C)=O)C1O [analogue 4, 3-aminopropyl O-(4-acetamido-2-O-methyl-4,6-dideoxy-β-D-glucopyranosyl)-(1→3)-O-(α-L-rhamnopyranosyl)-(1→3)-β-L-rhamnopyranoside]
Reduction in reporter signal (OD) compared to the control [1]: 17%

CO[C@H]1[C@H](O[C@@H]2[C@@H](O)[C@H](C)O[C@@H](O[C@@H]3[C@@H](O)[C@H](C)O[C@@H](OCCCN)[C@@H]3O)[C@@H]2O)O[C@H](C)[C@@H](NC(=O)CC(C)(C)O)[C@@H]1O [trisaccharide 1, 3-aminopropyl O-(4-(3-hydroxy-3-methylbutamido)-2-O-methyl-4,6-dideoxy-β-D-glucopyranosyl)-(1→3)-O-(α-L-rhamnopyranosyl)-(1→3)-α-L-rhamnopyranoside]
Drop in OD by competing free trisaccharide [1]: significant drop in OD
Inhibition of interaction of antisera from rabbits immunized with irradiated spores [2]: could also be inhibited in a dose response manner
Inhibition of anti-anthrose response measured by ELISA [3]: specifically inhibited
Inhibition of serum binding to KLH-A-3 [3]: inhibited binding
Inhibition of serum binding to KLH-conjugated trisaccharide [3]: Binding could be specifically inhibited
Inhibition of antiserum binding to B. anthracis Pasteur HF-PS-BSA [4]: no inhibition was observed

CC1OC(OC2C(O)C(C)OC(OCCCN)C2O)C(O)C(OC2OC(C)C(NC(=O)CC(C)(C)O)C(O)C2O)C1O [trisaccharide 2, 3-aminopropyl O-(4-(3-hydroxy-3-methylbutamido)-4,6-dideoxy-β-D-glucopyranosyl)-(1→3)-O-(α-L-rhamnopyranosyl)-(1→3)-α-L-rhamnopyranoside]
Relative recognition by antibodies elicited by the live spore vaccine [5]: recognized trisaccharide 2 much better than 1

COC1C(OC2C(O)C(C)OC(OC3C(O)C(C)OC(OCCCN)C3O)C2O)OC(C)C(NC(=O)CC(C)C)C1O [trisaccharide 3, 3-aminopropyl O-(4-(3-methylbutamido)-2-O-methyl-4,6-dideoxy-β-D-glucopyranosyl)-(1-→3)-O-(α-L-rhamnopyranosyl)-(1→3)-α-L-rhamnopyranoside]
Reduction in reporter signal (OD) compared to the control [1]: 85%

maltoheptaose [reference compound]
Inhibition of antiserum binding to B. anthracis HF-PS-BSA [6]: no significant inhibition
